Where two headings read alike, the source gives them in different places.
Legend:
[1] = Ketone hydrogenation, general procedure (vial); conditions: 2′,6′-dichloro-3′-fluoroacetophenone, 0.1 mol % catalyst, 50 °C, 16 h
[2] = Ketone hydrogenation, general procedure (vial); conditions: 4′-chloropropiophenone, 0.1 mol % catalyst, 50 °C, 16 h
[3] = Ketone hydrogenation, general procedure (vial); conditions: propiophenone; 0.001 equiv. catalyst, 50 °C, 16 h, 50 bar H2, K2CO3, ethanol; chiral HPLC, (S)
[4] = Ketone hydrogenation, general procedure (vial); conditions: 4′-methoxypropiophenone, 0.001 equiv. catalyst, 50 °C, 16 h
[5] = Ketone hydrogenation, general procedure (vial); conditions: isobutyrophenone; 0.001 equiv. catalyst, 50 °C, 16 h, 50 bar H2; chiral HPLC, (S)
[6] = Hydrogenation of acetophenone, microwave vials in autoclave (vial method); conditions: for e.e.: 50 bar H2, chiral HPLC, (S)
[7] = Ketone hydrogenation, general procedure (vial); conditions: 2′-fluoroacetophenone; 0.1 mol % catalyst, 50 °C, 16 h, 50 bar H2, K2CO3, ethanol
[8] = Ketone hydrogenation, general procedure (vial); conditions: 2′-chloroacetophenone; 0.1 mol % catalyst, 50 °C, 16 h, 50 bar H2, K2CO3, ethanol
[9] = Ketone hydrogenation, general procedure (vial); conditions: 2′-methoxyacetophenone; 0.1 mol % catalyst, 50 °C, 16 h, 50 bar H2, K2CO3, ethanol
[10] = Ketone hydrogenation, general procedure (vial); conditions: cyclohexylphenylketone; 0.1 mol % catalyst, 50 °C, 16 h, 50 bar H2, K2CO3, ethanol
[11] = for Conversion (%) / TOF: acetophenone, gas uptake, 20 bar H2, 50 °C; for TOF: at 20% conversion
Method: The vessel was sealed and pressurised with hydrogen gas (5 bar) and vented. This was repeated twice. The degassed ethanol solution was added via an injection port and the vessel sealed and pressurised with hydrogen gas (20 bar) and vented. This was repeated twice. The pressure was set to 2 bar and the mixture heated to 50° C. at which time the pressure was increased to 20 bar and the experiment started. Gas uptake was monitored by reduction of the pressure in the burette. […] The vessel was cooled to room temperature, vented and the content concentrated to dryness and analysed by ^1H-NMR to confirm full conversion. The uptake curve was converted to conversion by dividing the gas uptake at a time-point by total uptake and multiplied by 100 to get percentage conversion. Substrate and product concentrations could be calculated, from which the turnover frequency (TOF) could be calculated. The TOF was reported at 20% conversion to minimise temperature influence of the vessel setup.

[(Rc,Sp)—N-2-picolynyl-1-(-2-bis(4-methoxy-3,5-dimethylphenyl)-phosphino)ferrocenylethylamine]-κN^1-κN^2-κ^P-tricarbonyl manganese (I) bromide [compound 2]
e.e. ([1]; 50 bar H2, chiral HPLC, (S)): 82% | e.e. ([2]; 50 bar H2, chiral HPLC, (S)): 80% | ee [3]: 76% | conversion to product (NMR analysis) ([4]; 50 bar H2, K2CO3, ethanol): 96% | ee ([4]; 50 bar H2, chiral HPLC, (S)): 70% | ee [5]: 90%

[(Rc,Sp)—N-(4-(dimethylamino)pyridine-2-methyl)-1-(˜2-bis(4-methoxy-3,5-dimethylphenyl)phosphino)ferrocenylethylamine]-κN^1-κN^2-κ^P-tricarbonyl manganese (I) bromide [compound 6]
Conversion ([6]; 0.01 mol % catalyst, 65 °C, 24 h, 50 bar H2): >99% | e.e. ([6]; 0.01 mol % catalyst, 65 °C, 24 h): 57% (S) | Conversion ([6]; 0.02 mol % catalyst, 60 °C, 16 h, 50 bar H2): >99% | e.e. ([6]; 0.02 mol % catalyst, 60 °C, 16 h): 51% (S) | Conversion ([6]; 0.1 mol % catalyst, 50 °C, 16 h, 50 bar H2, K2CO3, ethanol): >99% | Conversion (%) ([6]; vial method, 0.1 mol % catalyst, 2 h, 50 bar H2): 56.5% | TOF ([6]; vial method, 0.1 mol % catalyst, calculated after 2 h, 50 bar H2): 283 h⁻¹ | Conversion [7]: >99% | Conversion [8]: >99% | Conversion [9]: >99% | Conversion ([1]; 50 bar H2, K2CO3, ethanol): >99% | Conversion ([2]; 50 bar H2, K2CO3, ethanol): >99% | Conversion [10]: >99% | Conversion (%) ([11]; 0.05 mol % catalyst, 12 h): 100% | TOF ([11]; 0.05 mol % catalyst): 237 h⁻¹ | Conversion (%) ([11]; 0.1 mol % catalyst, ethanol, run to completion): 100% | TOF ([11]; 0.1 mol % catalyst): 230 h⁻¹ | turnover frequency (TOF) with 6 relative to 7 ([11]; hydrogenation of acetophenone, Table 2): at least 3.5 times

Reference: patent US12281058B2, “Manganese catalysts and their use in hydrogenation of ketones” (priority 2019, dated 2025)
